Experiments:
Experiment in all cases: relative viability (nuclei count vs DMSO), 5 days (fraction); higher = more cells survive
201T = system: 201T
Outline: (§1)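 Lung cancer cell lines in 1536-well plates got either a single drug or a fixed anchor-drug dose together with five library-drug doses (not always all listed) in √10 steps, by pin tool, on the day after seeding. Nuclei were counted after 5 days, and relative viability is the treated-to-vehicle ratio of nuclei counts. Values are medians of duplicate plates.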

A-427 = system: A-427
Outline: as §1

COR-L23 = system: COR-L23
Outline: as §1

HARA = system: HARA
Outline: as §1

HCC-78 = system: HCC-78
Outline: as §1

LCLC-103H = system: LCLC-103H
Outline: as §1

LCLC-97TM1 = system: LCLC-97TM1
Outline: as §1

LK-2 = system: LK-2
Outline: as §1

LOU-NH91 = system: LOU-NH91
Outline: as §1

LXF-289 = system: LXF-289
Outline: as §1

NCI-H1650 = system: NCI-H1650
Outline: as §1

NCI-H1651 = system: NCI-H1651
Outline: as §1

NCI-H1793 = system: NCI-H1793
Outline: as §1

NCI-H2347 = system: NCI-H2347
Outline: as §1

NCI-H23 = system: NCI-H23
Outline: as §1

NCI-H2405 = system: NCI-H2405
Outline: as §1

NCI-H520 = system: NCI-H520
Outline: as §1

NCI-H522 = system: NCI-H522
Outline: as §1

NCI-H647 = system: NCI-H647
Outline: as §1

NCI-H838 = system: NCI-H838
Outline: as §1

PC-3 [JPC-3] = system: PC-3 [JPC-3]
Outline: as §1

RERF-LC-KJ = system: RERF-LC-KJ
Outline: as §1

UMC-11 = system: UMC-11
Outline: as §1

CN1CCN(CCOc2cc(OC3CCOCC3)c3c(Nc4c(Cl)ccc5c4OCO5)ncnc3c2)CC1 [Saracatinib] + CC(=O)Nc1cccc(-n2c(=O)n(C3CC3)c(=O)c3c(Nc4ccc(I)cc4F)n(C)c(=O)c(C)c32)c1 [Trametinib] (partner 0.02 µM)
relative viability (201T; first compound 0.02 µM): 0.726 | relative viability (201T; first compound 0.2 µM): 0.685 | relative viability (201T; first compound 0.6325 µM): 0.65 | relative viability (201T; first compound 2 µM): 0.615 | relative viability (A-427; first compound 0.02 µM): 0.764 | relative viability (A-427; first compound 0.2 µM): 0.738 | relative viability (A-427; first compound 0.6325 µM): 0.911 | relative viability (A-427; first compound 2 µM): 0.672 | relative viability (COR-L23; first compound 0.02 µM): 0.58 | relative viability (COR-L23; first compound 0.2 µM): 0.53 | relative viability (COR-L23; first compound 0.6325 µM): 0.574 | relative viability (COR-L23; first compound 2 µM): 0.559 | relative viability (HARA; first compound 0.02 µM): 0.688 | relative viability (HARA; first compound 0.2 µM): 0.624 | relative viability (HARA; first compound 0.6325 µM): 0.836 | relative viability (HARA; first compound 2 µM): 0.344 | relative viability (HCC-78; first compound 0.02 µM): 0.569 | relative viability (HCC-78; first compound 0.6325 µM): 0.869 | relative viability (HCC-78; first compound 2 µM): 0.523 | relative viability (LCLC-103H; first compound 0.02 µM): 0.716 | relative viability (LCLC-103H; first compound 0.2 µM): 0.58 | relative viability (LCLC-103H; first compound 0.6325 µM): 0.751 | relative viability (LCLC-103H; first compound 2 µM): 0.656 | relative viability (LCLC-97TM1; first compound 0.02 µM): 0.222 | relative viability (LCLC-97TM1; first compound 0.2 µM): 0.21 | relative viability (LCLC-97TM1; first compound 0.6325 µM): 0.223 | relative viability (LCLC-97TM1; first compound 2 µM): 0.275 | relative viability (LK-2; first compound 0.02 µM): 0.725 | relative viability (LK-2; first compound 0.2 µM): 0.736 | relative viability (LK-2; first compound 0.6325 µM): 0.722 | relative viability (LK-2; first compound 2 µM): 0.614 | relative viability (LOU-NH91; first compound 0.02 µM): 0.731 | relative viability (LOU-NH91; first compound 0.2 µM): 0.694 | relative viability (LOU-NH91; first compound 0.6325 µM): 0.758 | relative viability (LOU-NH91; first compound 2 µM): 0.636 | relative viability (LXF-289; first compound 0.02 µM): 0.677 | relative viability (LXF-289; first compound 0.2 µM): 0.644 | relative viability (LXF-289; first compound 0.6325 µM): 0.655 | relative viability (LXF-289; first compound 2 µM): 0.685 | relative viability (NCI-H1650; first compound 0.02 µM): 0.528 | relative viability (NCI-H1650; first compound 0.2 µM): 0.438 | relative viability (NCI-H1650; first compound 0.6325 µM): 0.505 | relative viability (NCI-H1650; first compound 2 µM): 0.291 | relative viability (NCI-H1651; first compound 0.02 µM): 0.837 | relative viability (NCI-H1651; first compound 0.2 µM): 0.593 | relative viability (NCI-H1651; first compound 0.6325 µM): 0.907 | relative viability (NCI-H1651; first compound 2 µM): 0.877 | relative viability (NCI-H1793; first compound 0.02 µM): 0.439 | relative viability (NCI-H1793; first compound 0.2 µM): 0.395 | relative viability (NCI-H1793; first compound 0.6325 µM): 0.513 | relative viability (NCI-H1793; first compound 2 µM): 0.475 | relative viability (NCI-H2347; first compound 0.02 µM): 0.265 | relative viability (NCI-H2347; first compound 0.2 µM): 0.265 | relative viability (NCI-H2347; first compound 0.6325 µM): 0.379 | relative viability (NCI-H2347; first compound 2 µM): 0.277 | relative viability (NCI-H23; first compound 0.02 µM): 0.344 | relative viability (NCI-H23; first compound 0.6325 µM): 0.351 | relative viability (NCI-H23; first compound 2 µM): 0.218 | relative viability (NCI-H2405; first compound 0.02 µM): 0.646 | relative viability (NCI-H2405; first compound 0.2 µM): 0.616 | relative viability (NCI-H2405; first compound 0.6325 µM): 0.444 | relative viability (NCI-H2405; first compound 2 µM): 0.406 | relative viability (NCI-H520; first compound 0.02 µM): 0.703 | relative viability (NCI-H520; first compound 0.2 µM): 0.53 | relative viability (NCI-H520; first compound 0.6325 µM): 0.586 | relative viability (NCI-H520; first compound 2 µM): 0.273 | relative viability (NCI-H522; first compound 0.02 µM): 0.708 | relative viability (NCI-H522; first compound 0.2 µM): 0.745 | relative viability (NCI-H522; first compound 0.6325 µM): 0.788 | relative viability (NCI-H522; first compound 2 µM): 0.536 | relative viability (NCI-H647; first compound 0.02 µM): 0.449 | relative viability (NCI-H647; first compound 0.2 µM): 0.381 | relative viability (NCI-H647; first compound 0.6325 µM): 0.39 | relative viability (NCI-H647; first compound 2 µM): 0.255 | relative viability (NCI-H838; first compound 0.02 µM): 0.54 | relative viability (NCI-H838; first compound 0.2 µM): 0.497 | relative viability (NCI-H838; first compound 0.6325 µM): 0.47 | relative viability (NCI-H838; first compound 2 µM): 0.425 | relative viability (PC-3 [JPC-3]; first compound 0.02 µM): 0.758 | relative viability (PC-3 [JPC-3]; first compound 0.2 µM): 0.587 | relative viability (PC-3 [JPC-3]; first compound 0.6325 µM): 0.534 | relative viability (PC-3 [JPC-3]; first compound 2 µM): 0.494 | relative viability (RERF-LC-KJ; first compound 0.02 µM): 0.907 | relative viability (RERF-LC-KJ; first compound 0.2 µM): 0.869 | relative viability (RERF-LC-KJ; first compound 0.6325 µM): 0.916 | relative viability (RERF-LC-KJ; first compound 2 µM): 0.687 | relative viability (UMC-11; first compound 0.02 µM): 0.763 | relative viability (UMC-11; first compound 0.2 µM): 0.586 | relative viability (UMC-11; first compound 0.6325 µM): 0.911 | relative viability (UMC-11; first compound 2 µM): 0.641

Reference: the supplement of paper PMC10307832
